# From the PolyMetriX glass transition set
# ± gives the standard deviation of the reports.
row,Structure (SMILES),glass transition temperature
1,*C(=O)OCCOC(=O)c1ccc(*)o1 (repeat unit),89.0 °C
2,*c1cc(Br)c(Oc2c(Br)cc(N3C(=O)c4ccc(S(=O)(=O)c5ccc6c(c5)C(=O)N(*)C6=O)cc4C3=O)cc2Br)c(Br)c1 (repeat unit),328.00 °C
3,*NC(C)CC(*)=O (repeat unit),125.00 °C
4,*OP(=O)(Oc1ccc(Cl)cc1)Oc1c(Cl)c(Cl)c(*)c(Cl)c1Cl (repeat unit),119.00 °C
5,*CCOCCOC(=O)/C=C/C(=O)O* (repeat unit),-8.20 °C
6,*Oc1ccc(C(=O)c2cccc(NC(=O)CCCCCCCCC(=O)Nc3ccc(C(=O)c4ccc(*)cc4)cc3)c2)cc1 (repeat unit),148.00 °C
7,*CCCCCC(=O)Nc1ccc(Oc2cccc(NC(=O)CCCCCN3C(=O)c4ccc(C(=O)c5ccc6c(c5)C(=O)N(*)C6=O)cc4C3=O)c2)cc1 (repeat unit),170.00 °C
8,*CC(CBr)O* (repeat unit),-14.00 °C
9,*Cc1ccc(CSSS*)cc1 (repeat unit),8.00 °C
10,*CC(*)(C)C(=O)OC1(C)C2CC3CC(C2)CC1C3 (repeat unit),165.00 °C
11,*Nc1ccc(NC(=O)c2ccc(NC(=O)c3ccc(P(=O)(c4ccccc4)c4ccc(C(*)=O)cc4)cc3)cc2)cc1 (repeat unit),243.00 °C
12,*CC(*)c1ccccc1C (repeat unit),131.00 °C
13,*CC(*)c1ccc([Si](C)(C)O)cc1 (repeat unit),147.00 °C
14,*CCN(CCOC(=O)c1ccc(C(=O)O*)cc1)c1ccc(-c2nc3ccc([N+](=O)[O-])cc3o2)cc1 (repeat unit),208.00 °C
15,*C1C2CCC(C2)C1S(*)(=O)=O (repeat unit),33.00 °C
16,*OC(CCCCCCC=C)CC(*)=O (repeat unit),-50.00 °C
17,*CCCCCCSS* (repeat unit),-74.00 °C
18,*CCOC(=O)c1ccc(O*)cc1 (repeat unit),84.00 °C
19,*Oc1cccc(OC2(F)C(*)(F)C(F)(F)C2(F)F)c1 (repeat unit),32.00 °C
20,*=NP(=NP(=NC(=*)Oc1ccc(C(=O)OC)cc1)(Oc1ccc(C(=O)OC)cc1)Oc1ccc(C(=O)OC)cc1)(Oc1ccc(C(=O)OC)cc1)Oc1ccc(C(=O)OC)cc1 (repeat unit),52.00 °C
21,*CC(*)c1ccc(C(=O)OC)cc1 (repeat unit) [Poly(p-methoxycarbonyl styrene) ],113 ± 5.6 °C
22,*C(C)C(*)C(=O)OCC (repeat unit),157.00 °C
23,*CCCCCCNC(=O)CCP(C)(=O)CCC(=O)N* (repeat unit),57.50 °C
24,*Cc1ccccc1C[n+]1ccc(-c2cc[n+](*)cc2)cc1 (repeat unit),70.50 °C
25,*CC(*)C(=O)OC1CC2CCC1(C)C2(C)C (repeat unit),100.00 °C
26,*c1ccc2c(c1)C(=O)N(c1ccc(Oc3ccc(N4C(=O)c5ccc(-c6c(-c7ccccc7)c(-c7ccccc7)c(-c7ccc(Sc8ccc(-c9c(-c%10ccccc%10)c(-c%10ccccc%10)c(*)c(-c%10ccccc%10)c9-c9ccccc9)cc8)cc7)c(-c7ccccc7)c6-c6ccccc6)cc5C4=O)cc3)cc1)C2=O (repeat unit),322.00 °C
27,*CC(*)(C)C(=O)OC1CCCC1 (repeat unit),75.00 °C

# Next, values leading:
row,glass transition temperature,Structure (SMILES)
1,27.00 °C,*O[Si](*)(C)CCCCCCCCCCC(=O)Oc1ccc2cc(C(=O)OC3CCC4(C)C(=CCC5C4CCC4(C)C(C(C)CCCC(C)C)CCC54)C3)ccc2c1 (repeat unit)
2,21.00 °C,*CC(*)c1c(F)c(F)c(OCC(F)(F)C(F)(F)C(F)(F)C(F)(F)C(F)(F)C(F)(F)C(F)(F)F)c(F)c1F (repeat unit)
3,340.00 °C,*c1ccc(Oc2ccc(C(C)(C)c3ccccc3)cc2)c(-n2c(=O)c3cc4c(=O)n(*)c(=O)c4cc3c2=O)c1 (repeat unit)
4,200.00 °C,*CCCCCC(=O)Nc1ccc(NC(=O)CCCCCN2C(=O)c3ccc(C(=O)c4ccc5c(c4)C(=O)N(*)C5=O)cc3C2=O)cc1 (repeat unit)
5,5.50 °C,*O[Si](*)(C)CCCCCCCCOc1ccc(C(=O)Oc2ccc(C#N)cc2C)cc1 (repeat unit)
6,214.00 °C,*Oc1ccc(-c2ccc(Oc3ccc(Oc4ccc(S(=O)(=O)c5ccc(Oc6ccc(*)cc6)cc5)cc4)cc3)c3ccccc23)c2ccccc12 (repeat unit)
7,303.00 °C,*c1ccc(Oc2ccc(-c3nc4cc(Oc5ccc(NC(=O)c6ccc7c(c6)C(=O)N(c6ccc(C(c8ccc(N9C(=O)c%10ccc(C(=O)Nc%11ccc(Oc%12ccc%13nc(-c%14ccc([N+](=O)[O-])cc%14)c(*)nc%13c%12)cc%11)cc%10C9=O)cc8)(C(F)(F)F)C(F)(F)F)cc6)C7=O)cc5)ccc4nc3-c3ccc([N+](=O)[O-])cc3)cc2)cc1 (repeat unit)
8,50.00 °C,*Oc1ccc(CC(NC(=O)CCc2ccc(OC(=O)CCCCC(*)=O)cc2)C(=O)OC(C)CC)cc1 (repeat unit)
9,150.00 °C,*Oc1ccc(C2(c3ccc(OC(=O)CCCCC(*)=O)cc3)c3cc(N(C)C)ccc3-c3ccc([N+](=O)[O-])cc32)cc1 (repeat unit)
10,248.00 °C,*Oc1ccc(S(=O)(=O)c2cccc3c(S(=O)(=O)c4ccc(Oc5ccc(-c6ccc(*)cc6)cc5)cc4)cccc23)cc1 (repeat unit)
11,41.00 °C,*/C=C/c1cccc(OC(=O)CCCCCCCCC(=O)Oc2cccc(-c3nnc(*)s3)c2)c1 (repeat unit)
12,145.00 °C,*C(=O)CCC1(CCC(=O)N2CCN(*)CC2)c2ccccc2-c2ccccc21 (repeat unit)
13,218.00 °C,*Oc1ccc(N(c2ccccc2)c2ccc(-c3ccc(N(c4ccccc4)c4ccc(*)cc4)cc3)cc2)cc1 (repeat unit)
14,170.00 °C,*CCCCCCCCCCCCN1C(=O)c2ccc(C(c3ccc4c(c3)C(=O)N(CCCCCCCCCCCCN3C(=O)c5ccc6c7ccc8c9c(ccc(c%10ccc(c5c6%10)C3=O)c97)C(=O)N(*)C8=O)C4=O)(C(F)(F)F)C(F)(F)F)cc2C1=O (repeat unit)
15,168.00 °C,*Oc1ccc(-c2ccc(OC(=O)c3ccc(-c4ccc(C(*)=O)cc4)cc3-c3ccccc3)cc2)cc1 (repeat unit)
16,155.00 °C,*C(=O)c1ccc(Oc2ccc(-c3ccc(Oc4ccc(C(=O)c5ccc6nc(*)ccc6c5)cc4)cc3)cc2)cc1 (repeat unit)
17,226.00 °C,*c1ccc(Oc2cccc(N3C(=O)c4ccc(Oc5cc6ccccc6cc5Oc5ccc6c(c5)C(=O)N(*)C6=O)cc4C3=O)c2)cc1 (repeat unit)
18,217.00 °C,*CC1CC2CC1C1CCC(CN3C(=O)c4ccc(C(=O)c5ccc6c(c5)C(=O)N(*)C6=O)cc4C3=O)C21 (repeat unit)

row,glass transition temperature,Structure (SMILES)
1,249.00 °C,*C(=O)c1cccc(C(=O)c2ccc3c(c2)C(=O)N(c2ccc(Oc4ccc(S(=O)(=O)c5ccc(Oc6ccc(N7C(=O)c8ccc(*)cc8C7=O)cc6)cc5)cc4)cc2)C3=O)c1 (repeat unit)
2,35.00 °C,*CC(*)(C)C(=O)Nc1ccc(C(=O)/C=C/c2ccc(OC)cc2)cc1 (repeat unit)
3,57.00 °C,*OC(=O)C(C)NC(=O)CCCCCCC(=O)NC(C)C(=O)OC1COC2C(*)COC12 (repeat unit)
4,139.00 °C,*Oc1ccc(C(=O)c2cccc(C(=O)c3ccc(*)cc3)c2)cc1 (repeat unit)
5,259.50 °C,*c1ccc(Cc2ccc(N3C(=O)N(c4ccc(Cc5ccc(N6C(=O)N(*)C(C)(C)C6=O)cc5)cc4)C(=O)C3(C)C)cc2)cc1 (repeat unit)
6,209.50 °C,*CC(*)(C)C(=O)OCCc1ccc(/N=N/c2ccc(OC(F)(F)F)cc2)cc1 (repeat unit)
7,48.00 °C,*CC(*)C(=O)OCCCCCCn1c2ccccc2c2ccccc21 (repeat unit)
8,63.00 °C,*/C=C(\C#N)C(=O)OCCCCCCOC(=O)/C(C#N)=C/c1ccc2c(c1)c1cc(*)ccc1n2CCCCCCCCCCCn1c2ccccc2c2ccccc21 (repeat unit)
9,254.00 °C,*c1ccc(N2C(=O)c3ccc(C(=O)c4ccc5c(c4)C(=O)N(c4ccc(-c6nc7cc(Oc8ccc9nc(-c%10ccccc%10)c(*)nc9c8)ccc7nc6-c6ccccc6)cc4)C5=O)cc3C2=O)cc1 (repeat unit)
10,178.00 °C,*Oc1ccc(/C(C)=N/c2ccc(/N=C(\C)c3ccc(Oc4ccc(C(c5ccccc5)(c5ccccc5)c5ccc(*)cc5)cc4)cc3)cc2)cc1 (repeat unit)
11,95.00 °C,*CC(*)(C)C(=O)OCCOCC[N+](CC)(CC)CCCCS(=O)(=O)O (repeat unit)
12,84.00 °C,*CCC(C)Oc1ccc(-c2ccc(C(=O)OCC(C)COC(=O)c3ccc(-c4ccc(O*)cc4)cc3)cc2)cc1 (repeat unit)
13,270.00 °C,*NNC(=O)c1ccc(C(=O)NNC(=O)c2ccc([Si](c3ccccc3)(c3ccccc3)c3ccc(C(*)=O)cc3)cc2)c2ccccc12 (repeat unit)
14,287.00 °C,*C(=O)Nc1ccc(Oc2ccc(C(C)(C)c3ccc(Oc4ccc(NC(=O)c5ccc6c(c5)C(=O)N(c5ccc(-c7sc(-c8ccc(N9C(=O)c%10ccc(*)cc%10C9=O)cc8)c(-c8ccccc8)c7-c7ccccc7)cc5)C6=O)cc4)cc3)cc2)cc1 (repeat unit)
15,155.00 °C,*c1cccc(NC(=O)c2ccc(OCCOCCOCCOCCOc3ccc(C(=O)Nc4ccc5[nH]c(*)nc5c4)cc3)cc2)c1 (repeat unit)
16,357.00 °C,*Oc1ccc(C(c2ccccc2)(c2ccccc2)c2ccc(Oc3ccc4c(=O)n5c6cc(-c7ccc8c(c7)nc7c9ccc(*)c%10cccc(c(=O)n87)c%109)ccc6nc5c5cccc3c45)cc2)cc1 (repeat unit)
17,92.00 °C,*OCCOC(=O)c1cccc(C(=O)OCCOc2nc(-c3ccc(OCCCC)cc3)nc(*)c2-c2ccc(OC)cc2)c1 (repeat unit)
18,146.00 °C,*Oc1cccc(C(=O)c2ccc(Oc3ccc(C(=O)c4ccc(*)cc4)cc3)cc2)c1 (repeat unit)
